# Measurements from the OligoGym collection.
# Oligonucleotides are written 5' to 3', each unit as a sugar letter and its base; * is a phosphorothioate linkage, no mark a phosphodiester; rarer units and linkages stand in square brackets, end groups in braces. Plain capitals give the bases only. d = 2'-deoxy (DNA); r = 2'-OH (RNA)
# Target: UBE2S
# Experiment: reporter assay of Huesken 2005
# Conditions: siRNA
# Further: test concentration or dose not given here.
row,Substance,normalised inhibition (eCFP-eYFP dual reporter)
1,sense rArArGrArUrCrUrUrCrCrArCrCrCrGrArArCrGdTdT / antisense rCrGrUrUrCrGrGrGrUrGrGrArArGrArUrCrUrUdGdG,60.4%
2,sense rCrCrArCrCrCrGrArUrGrGrCrArUrCrArArGrGdTdT / antisense rCrCrUrUrGrArUrGrCrCrArUrCrGrGrGrUrGrGdGdT,47.2%
3,sense rCrUrGrCrGrUrCrArArCrGrUrGrCrUrCrArArGdTdT / antisense rCrUrUrGrArGrCrArCrGrUrUrGrArCrGrCrArGdAdT,67.8%
4,sense rUrGrCrGrUrCrArArCrGrUrGrCrUrCrArArGrAdTdT / antisense rUrCrUrUrGrArGrCrArCrGrUrUrGrArCrGrCrAdGdA,74.5%
5,sense rCrUrCrGrGrGrCrCrCrGrUrCrUrGrCrUrCrArCdTdT / antisense rGrUrGrArGrCrArGrArCrGrGrGrCrCrCrGrArGdCdT,55%
6,sense rUrCrArCrCrArUrCrGrArGrGrGrCrCrCrUrGrAdTdT / antisense rUrCrArGrGrGrCrCrCrUrCrGrArUrGrGrUrGrAdCdC,35.9%
7,sense rCrCrArCrCrCrArArGrGrGrCrUrArCrUrUrCrCdTdT / antisense rGrGrArArGrUrArGrCrCrCrUrUrGrGrGrUrGrGdGdG,54.7%
8,sense rArCrGrArGrGrArGrGrCrGrGrGrCrCrGrCrCrUdTdT / antisense rArGrGrCrGrGrCrCrCrGrCrCrUrCrCrUrCrGrUdTdG,44.3%
9,sense rArGrGrArCrUrUrCrCrCrUrGrCrCrUrCrCrCrCdTdT / antisense rGrGrGrGrArGrGrCrArGrGrGrArArGrUrCrCrUdTdC,55.2%
10,sense rUrCrCrCrArArCrGrArGrGrArGrGrArCrCrUrCdTdT / antisense rGrArGrGrUrCrCrUrCrCrUrCrGrUrUrGrGrGrAdAdA,35.7%

# Target: UBE2B
# Experiment: reporter assay of Huesken 2005
# Conditions: siRNA
row,Substance,normalised inhibition (eCFP-eYFP dual reporter)
1,sense rUrArGrArUrArUrCrCrUrUrCrArGrArArUrCrGdTdT / antisense rCrGrArUrUrCrUrGrArArGrGrArUrArUrCrUrAdAdA,47.9%
2,sense rCrUrGrArArGrArArUrArUrCrCrArArArUrArAdTdT / antisense rUrUrArUrUrUrGrGrArUrArUrUrCrUrUrCrArGdAdA,80.1%
3,sense rGrUrArCrUrUrUrUrArArArCrUrArGrUrArArUdTdT / antisense rArUrUrArCrUrArGrUrUrUrArArArArGrUrArCdCdA,86.2%
4,sense rArArUrArGrCrCrArGrGrCrArGrCrArCrArGrCdTdT / antisense rGrCrUrGrUrGrCrUrGrCrCrUrGrGrCrUrArUrUdGdG,51%
5,sense rArUrArUrGrArGrArArArArGrArGrUrUrUrCrGdTdT / antisense rCrGrArArArCrUrCrUrUrUrUrCrUrCrArUrArUdTdC,46.3%
6,sense rGrUrArUrGrCrUrGrArUrGrGrUrArGrCrArUrAdTdT / antisense rUrArUrGrCrUrArCrCrArUrCrArGrCrArUrArCdAdC,75.7%
7,sense rUrCrCrUrUrCrArGrArArUrCrGrArUrGrGrArGdTdT / antisense rCrUrCrCrArUrCrGrArUrUrCrUrGrArArGrGrAdTdA,50%
8,sense rUrUrArArArCrUrArGrUrArArUrArGrArArUrUdTdT / antisense rArArUrUrCrUrArUrUrArCrUrArGrUrUrUrArAdAdA,46.7%
9,sense rArGrUrCrCrArArCrArUrArUrGrArUrGrUrArUdTdT / antisense rArUrArCrArUrCrArUrArUrGrUrUrGrGrArCrUdCdC,83.6%
10,sense rGrArArGrArArUrArUrCrCrArArArUrArArArCdTdT / antisense rGrUrUrUrArUrUrUrGrGrArUrArUrUrCrUrUrCdAdG,77.7%
11,sense rArGrArArArArGrArGrUrUrUrCrGrGrCrCrArUdTdT / antisense rArUrGrGrCrCrGrArArArCrUrCrUrUrUrUrCrUdCdA,77.8%
12,sense rGrCrUrGrGrArUrGrArArCrCrGrArArUrCrCrUdTdT / antisense rArGrGrArUrUrCrGrGrUrUrCrArUrCrCrArGrCdAdG,81.5%
13,sense rArUrCrCrArArArUrGrUrGrUrArUrGrCrUrGrAdTdT / antisense rUrCrArGrCrArUrArCrArCrArUrUrUrGrGrArUdGdA,73%
14,sense rArArUrCrGrArUrGrGrArGrUrCrCrArArCrArUdTdT / antisense rArUrGrUrUrGrGrArCrUrCrCrArUrCrGrArUrUdCdT,74.4%
15,sense rArUrGrGrUrArGrCrArUrArUrGrUrUrUrArGrAdTdT / antisense rUrCrUrArArArCrArUrArUrGrCrUrArCrCrArUdCdA,69.4%
16,sense rGrArArCrCrGrArArUrCrCrUrArArCrArGrUrCdTdT / antisense rGrArCrUrGrUrUrArGrGrArUrUrCrGrGrUrUrCdAdT,72.7%
17,sense rGrArGrArArUrArUrGrArGrArArArArGrArGrUdTdT / antisense rArCrUrCrUrUrUrUrCrUrCrArUrArUrUrCrUrCdGdT,83.6%
18,sense rGrArArUrArUrGrArGrArArArArGrArGrUrUrUdTdT / antisense rArArArCrUrCrUrUrUrUrCrUrCrArUrArUrUrCdTdC,78.7%
19,sense rArArCrCrGrArArUrCrCrUrArArCrArGrUrCrCdTdT / antisense rGrGrArCrUrGrUrUrArGrGrArUrUrCrGrGrUrUdCdA,49.9%
20,sense rGrArGrArArArArGrArGrUrUrUrCrGrGrCrCrAdTdT / antisense rUrGrGrCrCrGrArArArCrUrCrUrUrUrUrCrUrCdAdT,82.7%
21,sense rCrUrUrCrArGrArArUrCrGrArUrGrGrArGrUrCdTdT / antisense rGrArCrUrCrCrArUrCrGrArUrUrCrUrGrArArGdGdA,72.2%

row,Substance,normalised inhibition (eCFP-eYFP dual reporter)
1,sense rUrCrArGrUrCrUrCrUrGrCrUrGrGrArUrGrArAdTdT / antisense rUrUrCrArUrCrCrArGrCrArGrArGrArCrUrGrAdAdT,62.4%
2,sense rGrCrArCrArGrCrUrUrUrArUrCrArGrGrArArAdTdT / antisense rUrUrUrCrCrUrGrArUrArArArGrCrUrGrUrGrCdTdG,83.8%
3,sense rArArArCrUrArGrUrArArUrArGrArArUrUrUrUdTdT / antisense rArArArArUrUrCrUrArUrUrArCrUrArGrUrUrUdAdA,47.5%
4,sense rCrCrArArArArUrGrUrUrUrCrArUrCrCrArArAdTdT / antisense rUrUrUrGrGrArUrGrArArArCrArUrUrUrUrGrGdAdT,84.6%
5,sense rArCrCrUrGrUrGrGrGrUrGrUrCrArGrUrGrGrCdTdT / antisense rGrCrCrArCrUrGrArCrArCrCrCrArCrArGrGrUdGdG,76.7%
6,sense rGrArArUrCrGrArUrGrGrArGrUrCrCrArArCrAdTdT / antisense rUrGrUrUrGrGrArCrUrCrCrArUrCrGrArUrUrCdTdG,84.1%
7,sense rCrArGrArArUrCrGrArUrGrGrArGrUrCrCrArAdTdT / antisense rUrUrGrGrArCrUrCrCrArUrCrGrArUrUrCrUrGdAdA,86.3%
8,sense rArGrCrCrArArUrArGrCrCrArGrGrCrArGrCrAdTdT / antisense rUrGrCrUrGrCrCrUrGrGrCrUrArUrUrGrGrCrUdGdG,75.9%
9,sense rCrArGrCrArCrArGrCrUrUrUrArUrCrArGrGrAdTdT / antisense rUrCrCrUrGrArUrArArArGrCrUrGrUrGrCrUrGdCdC,77.5%
10,sense rGrUrUrUrCrGrGrCrCrArUrUrGrUrUrGrArArCdTdT / antisense rGrUrUrCrArArCrArArUrGrGrCrCrGrArArArCdTdC,61.6%
11,sense rArArArArGrArGrUrUrUrCrGrGrCrCrArUrUrGdTdT / antisense rCrArArUrGrGrCrCrGrArArArCrUrCrUrUrUrUdCdT,49.2%
12,sense rUrGrCrArGrUrUrArUrArUrUrUrGrGrArCrCrAdTdT / antisense rUrGrGrUrCrCrArArArUrArUrArArCrUrGrCrAdTdT,81.7%
13,sense rCrArGrUrGrGrCrGrCrArCrCrArUrCrUrGrArAdTdT / antisense rUrUrCrArGrArUrGrGrUrGrCrGrCrCrArCrUrGdAdC,61.8%
14,sense rArUrUrUrCrArArGrCrGrGrUrUrArCrArArGrAdTdT / antisense rUrCrUrUrGrUrArArCrCrGrCrUrUrGrArArArUdCdC,78.2%
15,sense rCrArUrArUrGrArUrGrUrArUrCrUrUrCrUrArUdTdT / antisense rArUrArGrArArGrArUrArCrArUrCrArUrArUrGdTdT,83.9%
16,sense rUrArGrUrArArUrArGrArArUrUrUrUrCrUrGrAdTdT / antisense rUrCrArGrArArArArUrUrCrUrArUrUrArCrUrAdGdT,72.3%
17,sense rUrCrCrArArArUrArArArCrCrArCrCrArArCrUdTdT / antisense rArGrUrUrGrGrUrGrGrUrUrUrArUrUrUrGrGrAdTdA,61.8%
18,sense rArGrUrCrCrArGrCrCrArArUrArGrCrCrArGrGdTdT / antisense rCrCrUrGrGrCrUrArUrUrGrGrCrUrGrGrArCrUdGdT,68.7%
19,sense rArArCrArArCrArUrCrArUrGrCrArGrUrGrGrAdTdT / antisense rUrCrCrArCrUrGrCrArUrGrArUrGrUrUrGrUrUdTdT,56.4%
20,sense rArCrCrArUrCrUrGrArArArArCrArArCrArUrCdTdT / antisense rGrArUrGrUrUrGrUrUrUrUrCrArGrArUrGrGrUdGdC,50.8%
21,sense rArCrGrArGrArArUrArUrGrArGrArArArArGrAdTdT / antisense rUrCrUrUrUrUrCrUrCrArUrArUrUrCrUrCrGrUdTdT,84.2%
